“Also recorded” adds a separate entry of the source. Read-outs that look alike come from different tables or passages of the source. One block for each compound: values may come before it.
How the values were obtained:
DT22 cells = test: Cell proliferation assay (WST-1), DT22; type: cell-based, human
Experimental: (§1) All cells were tested for mycoplasma using Real-Time PCR Mycoplasma Detection Kit (Akron Biotech, Boca Raton, FL).
(§2) All assays were performed in triplicate.

FOXM1 and ERα = test: Cellular level of FOXM1 and ERα (Western blot, mRNA); type: cell-based, human; settings: Western blot over time
Experimental: In-cell Western and Western blot assays Cells were cultured in 96-well plates at 3000 cells/well, and treated with compounds for the times indicated. Cells were washed twice in PBS, fixed with 4% formaldehyde (Fisher Scientific) solution in PBS, permeabilized in 0.1% Triton X-100 in PBS, blocked with Odyssey Blocking Buffer (LI-COR), and incubated with FOXM1 antibody (GeneTex, 102170) rabbit HC-20 ERa antibody (Santa Cruz, Cat #SC-543) or mouse F10 ERa antibody (Santa Cruz, Cat #SC8002) at 4 C overnight. Both IRDye 800 CW goat anti-rabbit secondary antibody (LI-COR, Cat #926-32211) and Cell Tag 700 (LI-COR, Cat #926-41090) were diluted (1:600) for incubation with cells. Plates were washed and staining signals were quantified and normalized with Cell Tag signals (to control for any differences in cell number per well) using LI-COR Odyssey infrared imaging system. Fold changes in protein levels were calculated relative to the vehicle treated WT samples. Results are the average±SD from at least three independent experiments, each performed with 4 wells per treatment condition. […]
RNA isolation and real-time PCR Total RNA was isolated using TRIzol (Invitrogen) and reverse transcribed using […] reverse transcriptase (New England BioLabs). […] Relative mRNA levels of genes were normalized to the housekeeping gene 36B4, and fold change calculated relative to the vehicle treated samples. […]

MCF7 cells = test: Cell proliferation assay (WST-1), MCF7; type: cell-based, human; settings: for IC50: read-out: IC50 MCF7
Experimental: as §1, §2

breast cancer cell lines = test: Proliferation of breast cancer cell lines (panel, line not specified); type: cell-based, human; settings: for IC50: read-out: IC50 for inhibition of proliferation of breast cancer cell lines
Experimental: as §1, §2

FOXM1 protein = biological target: T1, FOXM1 protein (Homo sapiens, UniProt Q08050); test: Competitive binding of inhibitors to FOXM1 by tr-FRET (Fl-NB-72 probe); settings: tr-FRET competition with Fl-NB-72; Ki calculated from IC50 (Cheng-Prusoff)
T1 construct: a terbium donor was attached to purified full length FOXM1 through a streptavidin-biotin linker
T1 sequence (Q08050 1-763): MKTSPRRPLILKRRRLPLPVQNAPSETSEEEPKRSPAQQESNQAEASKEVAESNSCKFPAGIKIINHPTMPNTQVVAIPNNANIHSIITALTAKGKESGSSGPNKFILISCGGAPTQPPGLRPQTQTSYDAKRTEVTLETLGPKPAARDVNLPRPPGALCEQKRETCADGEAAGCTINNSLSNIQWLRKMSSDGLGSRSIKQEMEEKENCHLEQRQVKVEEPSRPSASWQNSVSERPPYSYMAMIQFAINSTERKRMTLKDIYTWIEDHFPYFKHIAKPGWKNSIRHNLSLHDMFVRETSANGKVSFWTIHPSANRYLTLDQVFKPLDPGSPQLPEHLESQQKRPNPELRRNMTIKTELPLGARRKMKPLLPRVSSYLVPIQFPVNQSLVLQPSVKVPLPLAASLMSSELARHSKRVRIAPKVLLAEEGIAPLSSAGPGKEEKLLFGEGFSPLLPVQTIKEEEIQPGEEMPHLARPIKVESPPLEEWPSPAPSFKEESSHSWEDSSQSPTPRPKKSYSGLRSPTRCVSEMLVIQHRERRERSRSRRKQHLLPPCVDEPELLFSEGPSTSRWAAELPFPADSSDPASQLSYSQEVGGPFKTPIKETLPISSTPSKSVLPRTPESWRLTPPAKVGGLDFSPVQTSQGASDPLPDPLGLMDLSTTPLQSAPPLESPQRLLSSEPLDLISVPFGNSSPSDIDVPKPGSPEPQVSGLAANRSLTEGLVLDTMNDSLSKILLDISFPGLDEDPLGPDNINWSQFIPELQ
Experimental: Competitive binding assays of FOXM1 inhibitor binding to FOXM1 by tr-FRET were conducted. All tr-FRET experiments used FRET buffer (20 mM Tris, pH 7.5, 50 mM NaCl, 0.01% NP-40 detergent, 10% glycerol) with 0.3 mg/ml ovalbumin and 0.1 mM butylated hydroxy-anisole added fresh daily. Solutions of the protein, fluorescent probe and inhibitor dilutions were prepared at 3× the final concentrations, the final dilution taking place as they were mixed together on the microtiter plate.
Final concentrations were 10^-5M to 10^-9M, with the last point being buffer only, no inhibitor. Fluorescein-NB-72 (Fl-NB-72) was prepared at 1 mM in DMF and stored at −20° C. It was diluted into plain FRET buffer to give 100 nM in the assay.
Incubations were done in duplicate on black Molecular Devices 96-well microtiter plates. […] To this were added 5 μL of the inhibitor dilutions, mixed and incubated, in the dark, at room temperature, for 1 h. […] Diffusion-enhanced FRET was determined by a parallel incubation without biotin-FOXM1 and subtracted as a background signal. Graphs were prepared using Graph Pad/Prism 4.

[1] = test system: DT22 triple negative human breast tumor xenografts; test: DT22 triple negative breast tumor xenografts in NSG mice; type: in vivo, mouse; settings: for Tumor growth in vivo, low doses: 5 or 10 mg/kg s.c. every second or third day
Experimental: In vivo breast cancer xenograft studies For examination of the growth of triple-negative DT22 breast tumors, intact female NOD/SCID-gamma (NSG) mice were used. DT-22 cells (1×10^6 cells/mouse) were injected s.c. into the right axial mammary gland. Mice received s.c. injection or oral gavage daily or every second or third day, as indicated, with vehicle or FOXM1 inhibitor compound, and tumor growth was monitored over time.

MDA-MB-231 cells = test: Cell proliferation assay (WST-1), MDA-MB-231; type: cell-based, human; settings: inhibition of cell proliferation, read-out: IC50 MDA-MB-231
Experimental: as §1, §2

[2] = Pharmacokinetic studies in mice after single s.c. or oral dose; settings: for half-life / AUC(0-t): female, CD-1, mouse, plasma
Experimental: For s.c. injection, each compound was dissolved in DMSO and then mixed with corn oil for a total injection volume of 100 μL (10% DSMO+90% corn oil) per mouse. For oral gavage, compounds were administered in a 200 μL formulation of 9/0.5/0.5/90 parts of PEG400/Tween80/Povidone/0.5% Carboxymethylcellulose. […] Compounds were quantified by LC-MS/MS at the University of Illinois Metabolomics Core Facility. The data were fitted to a non-compartment model.

[3] = test system: tamoxifen-resistant MCF7 breast cancer cells; test: Proliferation of tamoxifen-resistant MCF7 cells; type: cell-based, human; settings: 6 days
Experimental: Values are mean±SD of three separate assays. Cell proliferation assay WST-1 assay (Roche, Basel, Switzerland) was used to quantify cell viability as described (Gong et al., Mol. Cell Endocrinol., 2016, 437:190-200). Absorbance was measured at 450 nm using a VICTOR X5 PerkinElmer 2030 Multilabel Plate Reader. All assays were performed in triplicate.

[4] = after IV administration; cited from earlier work
[5] = Homo sapiens, DT-22, inhibition of cell proliferation
[6] = Homo sapiens, MCF7, inhibition of cell proliferation
[7] = mice, oral, doses of FIGS. 6A-6B
[8] = mice, s.c., doses of FIGS. 6A-6B
[9] = cell line not specified or several lines

- Ki (FOXM1 protein): 51 nM
- IC50 (MCF7 cells; [6]): 800 nM
- IC50 (MDA-MB-231 cells; Homo sapiens, MDA-MB-231): 1700 nM
- half-life ([2]; po, 60 mg/kg): 18.5 h
- AUC(0-t) ([2]; po, 60 mg/kg, PK p.o. AUC0-48, mice, 60 mg/kg p.o.): 0.18 µM·h
- half-life ([2]; sc): 25 to 40 h
- half-life ([2]; sc, 60 mg/kg): 109 h
- AUC(0-t) ([2]; sc, 60 mg/kg, PK s.c. AUC0-48, mice, 60 mg/kg s.c.): 289 µM·h
- Blood levels after oral administration [2, 7]: very low levels
- Blood levels after s.c. injection [2, 8]: very high blood levels
SMILES: C[N+]1(CCCCCCOc2ccc(C(=C3C4CC5CC(C4)CC3C5)c3ccc(OCCCCCC[N+]4(C)CCCC4)cc3)cc2)CCCC1 [NB-68, 1,1′-((((((5r,7r)-adamantan-2-ylidene)methylene)bis(4,1-phenylene))bis(oxy))bis(hexane-6,1-diyl))bis(1-methylpyrrolidin-1-ium) diiodide]
- IC50 (DT22 cells; [5]): 700 nM
- Tumor growth in vivo, low doses [1]: greatly suppress tumor growth
- Growth of DT22 tumor xenografts ([1]; s.c., 20 mg/kg every other day for first 10 days then 10 mg/kg every other day): greatly suppress tumor growth

- Ki (FOXM1 protein): 76 nM
- IC50 (MCF7 cells; [6]): 5500 nM
- half-life ([2]; sc): 25 to 40 h
- AUC(0-t) ([2]; sc, 40 mg/kg, PK s.c. AUC0-48, mice, 40 mg/kg s.c.): 160 µM·h
- PK p.o. AUC0-48 ([2]; mice, 40 mg/kg p.o.): too low to measure
- Blood levels after oral administration [2, 7]: very low levels
- AUC after s.c. administration relative to NB-55 ([2]; mice, s.c.): approximately 3 fold
- Blood levels after s.c. injection [2, 8]: very high blood levels
SMILES: C[N+]1(CCCCCCOc2ccc(C(c3ccc(Cl)cc3)=C3C4C[C@H]5C[C@@H](C4)C[C@H]3C5)cc2)CCCC1 [NB-63]
- IC50 (DT22 cells; [5]): 6000 nM
- Tumor growth in vivo, low doses [1]: greatly suppress tumor growth
- Growth of DT22-Luc xenograft tumors, low doses ([1]; NB-115 s.c. daily 2 or 6 mg/kg, NB-63 s.c. daily 20 mg/kg until day 20, then 10 mg/kg every other day): suppress the growth; also recorded: effective in suppressing the growth
- Animal body weight ([1]; same low-dose regimens as tumor study (FIG. 14B)): do not affect; also recorded: little impact

- Ki (FOXM1 protein): 130 nM
- IC50 (MCF7 cells; [6]): 700 nM
- half-life ([2]; po, 20 mg/kg): 20.1 h
- AUC(0-t) ([2]; po, 20 mg/kg, PK p.o. AUC0-48, mice, 20 mg/kg p.o. (footnote *)): 1.8 µM·h
- AUC(0-t) ([2]; sc, 20 mg/kg, PK s.c. AUC0-48, mice, 20 mg/kg s.c. (footnote *)): 4.7 µM·h
SMILES: CCN(CC)CCCCCCOc1ccc(C(c2ccc(OCCCCCCN(CC)CC)cc2)=C2[C@H]3C[C@@H]4C[C@@H](C[C@H]2C4)C3)cc1 [NB-51, 6,6′-(((((5r,7r)-adamantan-2-ylidene)methylene)bis(4,1-phenylene))bis(oxy))bis(N,N-diethylhexan-1-amine)]
- IC50 (DT22 cells; [5]): 1500 nM
- Improvement in anti-proliferative activity versus monoamine NB-54 (MCF7 cells; MCF-7 cells): ~5 fold

- Ki (FOXM1 protein): 143 nM
- IC50 (MCF7 cells; inhibition of cell proliferation): 3100 nM
- IC50 (MDA-MB-231 cells): 4500 nM
- Blood levels after s.c. administration ([2]; mice, 20 mg/kg s.c.): very low blood levels
- Blood levels after oral administration ([2]; mice, 40 mg/kg oral, 40 mg/kg): undetectable
- Blood levels after oral administration ([2]; mice, 40 mg/kg oral, listed as FDI 6, 40 mg/kg): not detectable
- IC50 (breast cancer cell lines; [9]): 8000 nM
SMILES: Nc1c(C(=O)Nc2ccc(F)cc2)sc2nc(-c3cccs3)cc(C(F)(F)F)c12 [FDI-6, reference compound]
- IC50 (DT22 cells; inhibition of cell proliferation, read-out: IC50 DT-22): 4800 nM
- Cellular FOXM1 and ERα proteins (FOXM1 and ERα): downregulated

- Ki (FOXM1 protein): 190 nM
- IC50 (MCF7 cells; [6]): 800 nM
- IC50 for inhibition of proliferation of breast cancer cell lines (breast cancer cell lines; [9]): submicromolar
SMILES: c1cc(C(=C2C3CC4CC(C3)CC2C4)c2ccc(OCCCCCCN3CCCC3)cc2)ccc1OCCCCCCN1CCCC1 [NB-65, 1,1′-((((((5r,7r)-adamantan-2-ylidene)methylene)bis(4,1-phenylene))bis(oxy))bis(hexane-6,1-diyl))dipyrrolidine]
- IC50 (DT22 cells; [5]): 1000 nM

The next lines start with the compound.

SMILES: C=C(NC(=O)C(=C)NC(=O)c1csc(C2=N[C@@H]3c4csc(n4)[C@H]4NC(=O)c5csc(n5)[C@H]([C@](C)(O)[C@@H](C)O)NC(=O)[C@H]5CSC(=N5)/C(=C/C)NC(=O)[C@H]([C@@H](C)O)NC(=O)c5csc(n5)[C@]3(CC2)NC(=O)[C@H](C)NC(=O)C(=C)NC(=O)[C@H](C)NC(=O)[C@H]([C@@H](C)CC)N[C@@H]2C=Cc3c([C@H](C)O)cc(nc3[C@H]2O)C(=O)O[C@@H]4C)n1)C(N)=O [thiostrepton, reference compound]
- IC50 (DT22 cells; [5]): 3600 nM
- Cellular FOXM1 and ERα proteins (FOXM1 and ERα): downregulated
- IC50 (MCF7 cells; [6]): 1400 nM
- IC50 (breast cancer cell lines; Homo sapiens): 2000 nM

SMILES: CC/C(=C(\c1ccc(O)cc1)c1ccc(OCCN(C)C)cc1)c1ccccc1 [trans-hydroxytamoxifen, reference compound]
- Effect on proliferation of tamoxifen-resistant MCF7 cells [3]: weakly stimulated

SMILES: CCN(CC)c1ccc(C(c2ccc(N(CC)CC)cc2)=c2ccc3c(c2)CCc2ccccc2[N+]=3CCCN(C)C)cc1 [Imipramine Blue]
- half-life t1/2 [4]: 0.183 h
